Experiments:
full length human TREX1 = target: T1, full length human TREX1 (Homo sapiens, UniProt Q9NSU2); experiment: hTREX1 Biochemical Assay (fluorescence, dsDNA substrate degradation); settings: biochemical, read-out: hTREX1 IC50
T1 construct: N-terminally His-Tev tagged full length human TREX1; made in house; host or cells: E. coli
T1 sequence (Q9NSU2 1-314): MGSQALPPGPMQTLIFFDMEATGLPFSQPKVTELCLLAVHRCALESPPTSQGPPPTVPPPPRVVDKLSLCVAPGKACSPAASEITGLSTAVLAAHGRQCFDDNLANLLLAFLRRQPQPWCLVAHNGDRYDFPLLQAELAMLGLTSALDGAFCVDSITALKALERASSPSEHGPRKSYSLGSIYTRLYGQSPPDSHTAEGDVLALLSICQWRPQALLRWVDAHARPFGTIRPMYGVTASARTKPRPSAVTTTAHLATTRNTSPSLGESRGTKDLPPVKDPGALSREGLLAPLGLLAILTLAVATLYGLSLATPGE
In short: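 Cleavage of 60 nM TEX615/quencher-labelled dsDNA in pH 7.4 Tris buffer with 5 mM MgCl2, 1.0% DMSO, run 18 hours at 25° C, EDTA-quenched; fluorescence read-out.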

full length mouse TREX1 = target: T2, full length mouse TREX1 (Mus musculus, UniProt Q91XB0); experiment: mTREX1 Biochemical Assay (fluorescence, dsDNA substrate degradation); settings: biochemical, read-out: mTREX1 IC50
T2 construct: N-terminally His-Tev tagged full length mouse TREX1; made in house; host or cells: E. coli
T2 sequence (Q91XB0 1-314): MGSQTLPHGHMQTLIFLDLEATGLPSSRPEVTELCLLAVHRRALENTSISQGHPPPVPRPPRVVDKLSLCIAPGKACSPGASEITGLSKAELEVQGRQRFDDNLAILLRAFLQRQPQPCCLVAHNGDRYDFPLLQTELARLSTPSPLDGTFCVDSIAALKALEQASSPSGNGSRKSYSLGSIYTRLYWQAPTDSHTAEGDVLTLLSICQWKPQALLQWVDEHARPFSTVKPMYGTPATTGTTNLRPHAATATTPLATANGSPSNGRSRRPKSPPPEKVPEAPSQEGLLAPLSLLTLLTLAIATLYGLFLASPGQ
In short: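 Reaction run 18 h at 25° C. with 60 nM TEX615/quencher-labelled dsDNA and 6 pM mouse TREX1 in Tris buffer (pH 7.4, 5 mM MgCl2, 1.0% DMSO), enzyme having sat 4 h with compound across 10 concentrations. EDTA quench; substrate degradation measured as fluorescence increase.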

[1] = target: T3, human TREX2 (residues M44-A279) (Homo sapiens, UniProt Q9BQ50); experiment: hTREX2 Biochemical Assay (fluorescence, dsDNA substrate degradation); settings: biochemical selectivity for hTREX1 vs hTREX2
T3 construct: human TREX2 (residues M44-A279, expressed in E. coli); made in house; host or cells: E. coli
T3 sequence (Q9BQ50 44-279 isoform Q9BQ50-1): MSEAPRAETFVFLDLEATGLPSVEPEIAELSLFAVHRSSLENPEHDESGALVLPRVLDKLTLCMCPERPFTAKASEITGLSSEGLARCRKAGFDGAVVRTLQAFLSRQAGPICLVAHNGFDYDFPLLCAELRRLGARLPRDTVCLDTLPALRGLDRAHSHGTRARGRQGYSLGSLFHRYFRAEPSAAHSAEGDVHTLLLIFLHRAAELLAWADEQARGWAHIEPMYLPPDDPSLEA
In short: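 N-His-Tev E. coli enzyme (50 pM) pre-incubated with compound 4 h at 25 °C, then 60 nM TEX615/quencher dsDNA added; 18 h at 25 °C, pH 7.4 Tris buffer with 5 mM MgCl2, 1.0% DMSO. EDTA-quenched; fluorescence 570 ex/615 em from liberated fluorophore, 10-point dose-response.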

SMILES	IC50 (full length human TREX1) [µM]	IC50 (full length mouse TREX1) [µM]	hTREX1 vs hTREX2 selectivity [1]
CCn1c(C(C)C(c2cnn(C)c2)c2ccccc2C#N)nc(C(=O)Nc2cnoc2)c(O)c1=O (single isomer, unassigned) [Example 149 D2E1]	> 0.01	> 0.01	A (A = <25 fold selective for hTREX1)
CCn1c(C(C)C(c2cnn(C)c2)c2ccccc2C#N)nc(C(=O)Nc2cnoc2)c(O)c1=O (single isomer, unassigned) [Example 149 D2E2]	> 0.01	> 0.01	B (B = 25 to 50-fold selective for hTREX1)
CC(c1nc(C(=O)Nc2cnoc2)c(O)c(=O)n1C)C(c1cnn(C(F)(F)F)c1)c1ccccc1C#N (single isomer, unassigned) [Example 151 D1E2]	> 0.01	> 0.01	A (A = <25 fold selective for hTREX1)
CC(c1nc(C(=O)Nc2cnoc2)c(O)c(=O)n1C)C(c1ccccc1Cl)c1nncn1C (single isomer, unassigned) [Example 152 D1E2]	> 0.01	> 0.01	A (A = <25 fold selective for hTREX1)
CC(c1nc(C(=O)Nc2cnoc2)c(O)c(=O)n1C)C(c1ccccc1Cl)c1nncn1C (single isomer, unassigned) [Example 152 D2E1]	> 0.01	> 0.01	B (B = 25 to 50-fold selective for hTREX1)
CC(c1nc(C(=O)Nc2cnoc2)c(O)c(=O)n1C)C(c1ccccc1Cl)c1nncn1C (single isomer, unassigned) [Example 152 D2E2]	> 0.01	> 0.01	A (A = <25 fold selective for hTREX1)
CC(=O)N(C)c1nn(C)cc1C(c1ccccc1C#N)C(C)c1nc(C(=O)Nc2cnoc2)c(O)c(=O)n1C (single isomer, unassigned) [Example 153 D1E2]	> 0.01	> 0.01	A (A = <25 fold selective for hTREX1)
Cc1nn(C)c(C)c1C(c1cc(F)ccc1Cl)C(C)c1nc(C(=O)Nc2cnoc2)c(O)c(=O)n1C (single isomer, unassigned) [Example 154 D1E2]	> 0.01	> 0.01	A (A = <25 fold selective for hTREX1)
CC(c1nc(C(=O)Nc2cnoc2)c(O)c(=O)n1C)C(c1ccccc1)c1cccnc1C#N (single isomer, unassigned) [Example 155 D1E1]	> 0.01	> 0.01	B (B = 25 to 50-fold selective for hTREX1)
CC(c1nc(C(=O)Nc2cnoc2)c(O)c(=O)n1C)C(c1ccccc1)c1cccnc1C#N (single isomer, unassigned) [Example 155 D2E2]	> 0.01	> 0.01	A (A = <25 fold selective for hTREX1)
Cc1nnc(C(c2ccccc2Cl)C(C)c2nc(C(=O)Nc3cnoc3)c(O)c(=O)n2C)o1 (single isomer, unassigned) [Example 156 D1E2]	> 0.01	> 0.01	A (A = <25 fold selective for hTREX1)
Cc1nnc(C(c2ccccc2Cl)C(C)c2nc(C(=O)Nc3cnoc3)c(O)c(=O)n2C)o1 (single isomer, unassigned) [Example 156 D2E1]	> 0.01	> 0.01	A (A = <25 fold selective for hTREX1)
Cc1nnc(C(c2ccccc2Cl)C(C)c2nc(C(=O)Nc3cnoc3)c(O)c(=O)n2C)o1 (single isomer, unassigned) [Example 156 D2E2]	0.001 to 0.01	> 0.01	B (B = 25 to 50-fold selective for hTREX1)
